Like-named read-outs stand apart in the source and are kept apart here.
Key:
[1] = system: Echinochloa caudate; assay: Post-emergence foliage spray, pot culture, fresh weight inhibition (Tables 1-48, 51-98, 101-148; 24 days); type: in vivo; conditions: for Control effect (%) of B applied alone in corresponding dose: Table 86
Protocol: (§1) The above weeds were cultivated by a pot culture method. […] Full and uniform weed seeds were selected, soaked in warm water at 25° C. for 6 hours, and germinated in a 28° C. biochemical incubator (darkness). The weed seeds that had just germinatedwere evenly placed on the surface of the soil and then covered with 0.5-1 cm soil according to the sizes of seeds.
(§2) The technical materials were all dissolved in acetone, and diluted with an aqueous solution containing 0.1% emulsifier Tween-80. The dilution is performed as required.
(§3) A ratio of the active ingredient A to the active ingredient B and amounts thereof in each group depends on the characteristics and toxicity of the two agents, as well as the main application purpose of a corresponding formulation. Based on the pre-tests in this study, the dosage of the active ingredient A and B applied alone and in combination were shown in the tables. Water containing the solvent and emulsifier same with the above groups but free of the agents was used as a blank control.
(§4) In the stage of weeds with 3˜4 leaves, the weeds were thinned out to maintain 15 weeds per pot and 45 weeds for each treatment, then continued to be cultured to 5˜6 leaves stage of grassy weeds, 6˜7 leaves stage of broadleaf weeds, and treated.
(§5) The well-cultured weeds were evenly placed on a platform with an area of 0.5 m^2, and a solution of agents was sprayed on the stems and leaves thereof by the 3WP-2000-type walking spray tower at a dosage of 450 kg/ha and at a spray pressure of 0.3 MPa. After all the solution was sprayed, the valve was closed. After 30 seconds, the door of the spray tower was opened, and the nutritional bowl was taken out. Then the valve was opened, and the spray tube was cleaned by spraying 50 ml of water.
(§6) A pot-culture method was employed. For the cultivation of weeds, please refer to the Section 1.1), and “Pesticide guidelines for laboratory bioactivity tests—herbicides”. As to a method for applying agents, please refer to the section 2.3.2), that is, a foliage treatment was employed. After the treatment, the weeds were routinely cultured in a greenhouse.
(§7) A method for investigating absolute number was employed, wherein whole seedlings of survival weeds were cut off with a blade along the soil surface, and the fresh weight of the weeds was weighed with an analytical balance. For dead weeds, the fresh weight thereof was zero.
(§8) Wherein, in the formula, X represented the fresh weight inhibition rate of the active ingredient A in a dosage of P, and Y represented the fresh weight inhibition rate of the active ingredient B in a dosage of Q.

[2] = system: Echinochloa oryzoides; assay: as above; type: in vivo
Protocol: as §1, §2, §3, §4, §5, §6, §7, §8

[3] = Echinochloa, 576 h, read-out: Control effect (%) of B applied alone in corresponding dose
[4] = Echinochloa oryzoides, 576 h, read-out: Control effect (%) of B applied alone in corresponding dose

With `CCNc1nc(Cl)nc(NC(C)C)n1` [atrazine] the pest or weed control at 75 g/ha ([1]; Echinochloa, 576 h, atrazine 75 g a.i./ha, read-out: Control effect (%) of B applied alone in corresponding dose) was 3.8%, the pest or weed control at 150 g/ha ([1]; Echinochloa, 576 h, atrazine 150 g a.i./ha, read-out: Control effect (%) of B applied alone in corresponding dose) was 13.5% and the pest or weed control at 300 g/ha ([1]; Echinochloa, 576 h, atrazine 300 g a.i./ha, read-out: Control effect (%) of B applied alone in corresponding dose) was 24.8%. The pest or weed control at 600 g/ha ([1]; Echinochloa, 576 h, atrazine 600 g a.i./ha, read-out: Control effect (%) of B applied alone in corresponding dose) was 66.5%, the pest or weed control at 75 g/ha ([2]; Echinochloa oryzoides, 576 h, B 75 g a.i./ha, read-out: Control effect (%) of B applied alone in corresponding dose) was 6.7% and the pest or weed control at 150 g/ha ([2]; Echinochloa oryzoides, 576 h, B 150 g a.i./ha, read-out: Control effect (%) of B applied alone in corresponding dose) was 21.7%. It also gave a pest or weed control at 300 g/ha ([2]; Echinochloa oryzoides, 576 h, B 300 g a.i./ha, read-out: Control effect (%) of B applied alone in corresponding dose) of 26.4% and a pest or weed control at 600 g/ha ([2]; Echinochloa oryzoides, 576 h, B 600 g a.i./ha, read-out: Control effect (%) of B applied alone in corresponding dose) of 61.8%.
In the case of `CS(=O)(=O)c1ccc(C(=O)C2=C(Sc3ccccc3)C3CCC(C3)C2=O)c(Cl)c1` (stereo not drawn) [benzobicylon], the “Control effect (%) of B applied alone in corresponding dose” value (shortened to “Control effect (%) of B applied alone”) ([1]; 37.5 g a.i./ha) is reported as 2.1%, the “Control effect (%) of B applied alone” value ([1]; 75 g a.i./ha) is reported as 11.7% and the “Control effect (%) of B applied alone” value ([1]; 150 g a.i./ha) is reported as 43.3%. The “Control effect (%) of B applied alone” value ([1]; 300 g a.i./ha) was 54.4%, the “Control effect (%) of B applied alone” value ([2]; B 37.5 g a.i./ha) was 9.3% and the “Control effect (%) of B applied alone” value ([2]; B 75 g a.i./ha) was 18.0%. For the same molecule, the “Control effect (%) of B applied alone” value ([2]; B 150 g a.i./ha) was 46.6% and the “Control effect (%) of B applied alone” value ([2]; B 300 g a.i./ha) was 57.3%.
In the case of `CCSC(C)CC1CC(=O)C(/C(CC)=N/OC/C=C/Cl)=C(O)C1` (stereo not drawn) [clethodim], the pest or weed control at 7.5 g/ha [1, 3] is reported as 3.4%, the pest or weed control at 15 g/ha [1, 3] is reported as 27% and the pest or weed control at 30 g/ha [1, 3] is reported as 43.8%. It also gave a pest or weed control at 60 g/ha [1, 3] of 67.4%, a pest or weed control at 7.5 g/ha [2, 4] of 6.7% and a pest or weed control at 15 g/ha [2, 4] of 19%. For the same molecule, the pest or weed control at 30 g/ha [2, 4] was 37.8% and the pest or weed control at 60 g/ha [2, 4] was 62.7%.
In the case of `CC1(C)CON(Cc2ccccc2Cl)C1=O` [clomazone], the pest or weed control at 45 g/ha ([1]; Echinochloa, 576 h, Table 89, 45 g a.i./ha, read-out: Control effect (%) of B applied alone in corresponding dose) is reported as 8.6%, the pest or weed control at 90 g/ha ([1]; Echinochloa, 576 h, Table 89, 90 g a.i./ha, read-out: Control effect (%) of B applied alone in corresponding dose) is reported as 19% and the pest or weed control at 180 g/ha ([1]; Echinochloa, 576 h, Table 89, 180 g a.i./ha, read-out: Control effect (%) of B applied alone in corresponding dose) is reported as 47.7%. For the same molecule, the pest or weed control at 360 g/ha ([1]; Echinochloa, 576 h, Table 89, 360 g a.i./ha, read-out: Control effect (%) of B applied alone in corresponding dose) was 70.1%, the pest or weed control at 45 g/ha ([2]; Echinochloa oryzoides, 576 h, B 45 g a.i./ha, read-out: Control effect (%) of B applied alone in corresponding dose) was 8.6% and the pest or weed control at 90 g/ha ([2]; Echinochloa oryzoides, 576 h, B 90 g a.i./ha, read-out: Control effect (%) of B applied alone in corresponding dose) was 12.9%. The pest or weed control at 180 g/ha ([2]; Echinochloa oryzoides, 576 h, B 180 g a.i./ha, read-out: Control effect (%) of B applied alone in corresponding dose) was 50.9% and the pest or weed control at 360 g/ha ([2]; Echinochloa oryzoides, 576 h, B 360 g a.i./ha, read-out: Control effect (%) of B applied alone in corresponding dose) was 72.1%.
`CCCCOC(=O)[C@@H](C)Oc1ccc(Oc2ccc(C#N)cc2F)cc1` [cyhalofop-butyl] showed a pest or weed control at 9.375 g/ha [1, 3] of 5.9%, a pest or weed control at 18.75 g/ha [1, 3] of 11.4% and a pest or weed control at 37.5 g/ha [1, 3] of 29.9%. The pest or weed control at 75 g/ha [1, 3] was 69.6%, the pest or weed control at 9.375 g/ha [2, 4] was 5.5% and the pest or weed control at 18.75 g/ha [2, 4] was 15%. It also gave a pest or weed control at 37.5 g/ha [2, 4] of 32.1% and a pest or weed control at 75 g/ha [2, 4] of 63.5%.
For `CN(C)C(=O)Nc1ccc(Cl)c(Cl)c1` [diuron], the pest or weed control at 75 g/ha [1, 3] was 3%, the pest or weed control at 150 g/ha [1, 3] was 16.5% and the pest or weed control at 300 g/ha [1, 3] was 28.6%. For the same molecule, the pest or weed control at 600 g/ha [1, 3] was 52.2%, the pest or weed control at 75 g/ha [2, 4] was 4.1% and the pest or weed control at 150 g/ha [2, 4] was 14%. It also gave a pest or weed control at 300 g/ha [2, 4] of 31.3% and a pest or weed control at 600 g/ha [2, 4] of 56.2%.

— US20220264878A1, “HERBICIDAL COMPOSITION CONTAINING R-TYPE PYRIDYLOXY CARBOXYLIC ACID DERIVATIVE AND USE THEREOF” (Qingdao Kingagroot Chemical Compound Co., Ltd., priority 2019, published 2022)
